Key:
guinea pig neutrophils = experiment: Effect on O2− generation by guinea pig neutrophils induced by FMLP stimulation; format: cell-based; conditions: for relative inhibition rate to the control of O2− generation: 1 mg/ml, preincubation 37° C. 1 hour; for suppression of O2− generation by neutrophils (in words): 0.01 to 1 mg/ml
Method: A 0.2% aqueous solution of glycogen in physiological saline was autoclaved, and 20 ml of the solution was intraperitoneally administered to a Hartley female guinea pig. The animal was killed by exsanguination 16 hours later, 20 ml of physiological saline containing 10 U/ml of heparin was injected into the abdominal cavity, and the peritoneal exudate was collected. The exudate was centrifuged at 1000 rpm for 10 minutes on a desk-top centrifugal machine, and purified water was added to the precipitate to cause hemolysis for 30 seconds. The solution was made isotonic again with Hank's balanced salt solution at 2-fold concentration, and centrifuged at 1000 rpm for 10 minutes. A procedure of resuspension of the precipitates in the Hank's balanced salt solution and centrifugation was repeated twice to obtain neutrophils. The obtained guinea pig neutrophils were suspended in Hank's balanced salt solution, and the leukocyte number was counted by a blood cell counter (Sysmex K-2000). A suspension diluted with Hank's balanced salt solution to 2×10^6 cells/ml was used for the experiment as a cell suspension.
1 ml of the-cell suspension and 10 μl of a solution of test substance at a known concentration (in a control, keratan sulfate oligosaccharide was not added) were mixed, preincubated at 37° C. for 1 hour, and 50 μl of 1.6 mM cytochrome C solution and 100 μl of 0.1 mM FMLP solution were successively added thereto and mixed. The mixture was incubated at 37° C. for 10 minutes, and the reaction was stopped by cooling with ice. The reaction mixture was centrifuged at 3000 rpm for 5 minutes, and absorbance of the supernatant was measured at a wavelength of 550 nm. All of the aforementioned procedures except for the incubation were performed with ice cooling.

normal mice = format: in vivo; conditions: for body weight thereafter: all mice, 2,000 mg/kg i.v. once, after the next day up to 14 days; for body weight on the next day of the administration: male mice, 2,000 mg/kg i.v. once; for general condition immediately after the administration: mice, 2,000 mg/kg i.v. once; for death: mice, male and female groups, 2,000 mg/kg i.v. once, observed 14 days
Method: From the above results, the least fatal dose of K4 and G4L4 for single intravenous administration is considered to be 2,000 mg/kg or higher. Therefore, LD50 of K4 and G4L4 for single intravenous administration exceeds 2,000 mg/kg for both of male and female mice.

Guinea pigs = experiment: Test for antigenicity in guinea pigs (active systemic anaphylaxis); format: in vivo; conditions: sensitized s.c., induced i.v.
Method: Guinea pigs were sensitized by 3 times of subcutaneous administration of K4 or G4L4 alone or an emulsion of K4 with an immunostimulant, Freund's complete adjuvant (FCA). K4 or G4L4 was intravenously administered to the animals 12 days after the final sensitization to induce active systemic anaphylaxis. As a positive control, a similar test was performed for ovalbumin (OVA).
The results of the above test were shown in Table 1 together with the doses of the test substances. […] From the above results, K4 and G4L4 are not considered to induce active systemic anaphylaxis in guinea pigs.

Molecule | relative inhibition rate to the control of O2− generation (guinea pig neutrophils) | suppression of O2− generation by neutrophils (in words) (guinea pig neutrophils) | body weight thereafter (normal mice) | body weight on the next day of the administration (normal mice) | general condition immediately after the administration (normal mice) | death (normal mice) | anaphylatic reaction after induction (Guinea pigs)
CC(=O)NC1C(O)OC(COS(=O)(=O)[O-])C(OC2OC(COS(=O)(=O)[O-])C(O)C(OC3OC(COS(=O)(=O)[O-])C(OC4OC(COS(=O)(=O)[O-])C(O)C(O)C4O)C(O)C3NC(C)=O)C2O)C1O.[Na+].[Na+].[Na+].[Na+] (centres unmarked) [Compound L4L4, reference compound] | 50.6% | markedly suppressed | – | – | – | – | –
CC(=O)N[C@@H]1[C@@H](O)[C@H](O[C@@H]2O[C@H](COS(=O)(=O)[O-])[C@H](O)[C@H](O[C@@H]3O[C@H](COS(=O)(=O)[O-])[C@@H](O)[C@H](O)[C@H]3NC(C)=O)[C@H]2O)[C@@H](COS(=O)(=O)[O-])O[C@H]1O.[Na+].[Na+].[Na+] [Compound G4L4, O-(2-Acetamido-2-deoxy-6-O-sulfo-β-D-glucopyranosyl)-(1→3)-O-(6-O-sulfo-β-D-galactopyranosyl)-(1→4)-O-2-acetamido-2-deoxy-6-O-sulfo-β-D-glucopyranose Trisodium Salt] | 57.1% | markedly suppressed | favorable body weight increase | slight weight loss | paralytic gait was observed for every mouse | No death was observed | No anaphylatic reaction was observed
CC(=O)N[C@H]1[C@H](O[C@@H]2[C@@H](O)[C@H](O)O[C@H](COS(=O)(=O)[O-])[C@@H]2O)O[C@H](COS(=O)(=O)[O-])[C@@H](O)[C@@H]1O.[Na+].[Na+] [Compound K4, O-(2-Acetamido-2-deoxy-6-O-sulfo-β-D-glucopyranosyl)-(1→3)-O-6-O-sulfo-β-D-galactopyranose Disodium Salt] | 44.7% | markedly suppressed | favorable body weight increase | slight weight loss | paralytic gait was observed for every mouse | No death was observed | No anaphylatic reaction was observed
OVA: ovalbumin, positive control in the antigenicity test (protein, UniProt P01012 2-386, looked up) Ovalbumin: GSIGAASMEFCFDVFKELKVHHANENIFYCPIAIMSALAMVYLGAKDSTRTQINKVVRFDKLPGFGDSIEAQCGTSVNVHSSLRDILNQITKPNDVYSFSLASRLYAEERYPILPEYLQCVKELYRGGLEPINFQTAADQARELINSWVESQTNGIIRNVLQPSSVDSQTAMVLVNAIVFKGLWEKAFKDEDTQAMPFRVTEQESKPVQMMYQIGLFRVASMASEKMKILELPFASGTMSMLVLLPDEVSGLEQLESIINFEKLTEWTSSNVMEERKIKVYLPRMKMEEKYNLTSVLMAMGITDVFSSSANLSGISSAESLKISQAVHAAHAEINEAGREVVGSAEAGVDAASVSEEFRADHPFLFCIKHIATNAVLFFGRCVSP | – | – | – | – | – | – | showed anaphylatic reaction

Source: patent publication US6562954B1, “Method for producing oligosaccharide, and novel oligosaccharide and pharmaceutical composition containing the same” (Seikagaku Corporation, priority 1999, dated 2003)
